ChEMBL document CHEMBL1129120, “Anti-human immunodeficiency and anti-hepatitis B virus activities of -l-2,3-dideoxy purine nucleosides” (Bioorg Med Chem Lett, 1996)
pEC50, pIC50: −log10 of the molar value.

Legend:
CCRF-CEM [1] = experiment: Antiviral activity against HIV in CEM cell line; assay type: functional, cell-based; details: Homo sapiens
HepG2 [2] = experiment: Concentration required to inhibit 50% of 2.2.15 cell line; assay type: functional, cell-based; details: Homo sapiens
[3] = Antiviral activity against HIV in human peripheral blood mononuclear cells (PBMC); assay type: functional
HepG2 [4] = experiment: Antiviral activity against Hepatitis B virus in 2.2.15 cell line; assay type: functional, cell-based; details: Homo sapiens
[5] = Concentration required to inhibit 50% of human peripheral blood mononuclear cells; assay type: functional
CCRF-CEM [6] = experiment: Concentration required to inhibit 50% of CEM cell lines; assay type: functional, cell-based; details: Homo sapiens

Row | Compound | pEC50 (CCRF-CEM [1]) | pIC50 (HepG2 [2]) | pEC50 [3] | pEC50 (HepG2 [4]) | pIC50 [5] | pIC50 (CCRF-CEM [6])
1 | Nc1ncnc2c1ncn2[C@H]1C=C[C@@H](CO)O1 (single isomer, unassigned) | 6.27 | 4.15 | 6.42 | 5.92 | 4.23 | 4.43
2 | O=c1[nH]cnc2c1ncn2[C@H]1CC[C@@H](CO)O1 (single isomer, unassigned) [DIDANOSINE] |  | < 3.70 | < 4.00 | < 5.00 | < 4.00 | 
3 | OC[C@H]1C=C[C@@H](n2cnc3c(O)ncnc32)O1 |  | 4.30 | 5.26 | < 5.00 | 4.22 | 
4 | Nc1nc(O)c2ncn([C@@H]3C=C[C@H](CO)O3)c2n1 | 4.74 | 4.30 | 4.85 | < 5.00 | < 4.00 | < 5.00

The next lines start with the values.

Row | pEC50 (CCRF-CEM [1]) | pIC50 (HepG2 [2]) | pEC50 [3] | pEC50 (HepG2 [4]) | pIC50 [5] | pIC50 (CCRF-CEM [6]) | Compound
5 | < 4.00 | 3.70 | < 4.00 | < 5.00 | < 4.00 | < 4.00 | Nc1nc(O)c2ncn([C@H]3CC[C@@H](CO)O3)c2n1 (single isomer, unassigned)
6 |  | < 3.70 | 5.09 | 5.22 | < 4.00 |  | Nc1ncnc2c1ncn2[C@H]1CC[C@@H](CO)O1 (single isomer, unassigned)
